Source: ChEMBL document CHEMBL5108026, “An overview on Estrogen receptors signaling and its ligands in breast cancer” (Eur J Med Chem, 2022)

Experiments:
[1] = system: MCF7; assay: Antiproliferative activity against human MCF7 cells assessed as inhibition of cell growth; assay type: functional, cell-based
[2] = molecular target: T1, Estrogen receptor beta (Homo sapiens, UniProt Q92731); assay: Agonist activity at human ER-beta transfected in African green monkey COS-7 cells measured after 24 hrs by Steady-Glo luciferase assay; assay type: cell-based
T1 sequence (Q92731 whole entry): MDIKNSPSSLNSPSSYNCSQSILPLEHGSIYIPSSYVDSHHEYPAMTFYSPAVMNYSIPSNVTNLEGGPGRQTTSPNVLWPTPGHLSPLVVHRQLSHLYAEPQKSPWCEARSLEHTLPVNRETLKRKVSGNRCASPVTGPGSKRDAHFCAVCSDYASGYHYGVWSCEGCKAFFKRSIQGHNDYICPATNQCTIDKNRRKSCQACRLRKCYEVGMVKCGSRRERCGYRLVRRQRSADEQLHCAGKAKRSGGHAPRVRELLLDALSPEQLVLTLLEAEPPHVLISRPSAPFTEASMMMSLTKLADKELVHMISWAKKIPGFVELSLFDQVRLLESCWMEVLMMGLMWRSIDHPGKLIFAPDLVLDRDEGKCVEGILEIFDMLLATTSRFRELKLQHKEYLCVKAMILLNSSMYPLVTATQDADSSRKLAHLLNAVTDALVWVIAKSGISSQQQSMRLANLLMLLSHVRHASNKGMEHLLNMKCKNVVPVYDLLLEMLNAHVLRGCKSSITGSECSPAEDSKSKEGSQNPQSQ

[3] = molecular target: T1, Estrogen receptor beta; assay: Displacement of EL red from human full-length ER-beta expressed in baculovirus expression system incubated for 2 hrs by fluorescence polarization assay
[4] = molecular target: T2, Aromatase (Rattus norvegicus, UniProt P22443); assay: Inhibition of aromatase in rat mammary tumor; assay type: tissue-based, Mammary gland
T2 sequence (P22443 whole entry): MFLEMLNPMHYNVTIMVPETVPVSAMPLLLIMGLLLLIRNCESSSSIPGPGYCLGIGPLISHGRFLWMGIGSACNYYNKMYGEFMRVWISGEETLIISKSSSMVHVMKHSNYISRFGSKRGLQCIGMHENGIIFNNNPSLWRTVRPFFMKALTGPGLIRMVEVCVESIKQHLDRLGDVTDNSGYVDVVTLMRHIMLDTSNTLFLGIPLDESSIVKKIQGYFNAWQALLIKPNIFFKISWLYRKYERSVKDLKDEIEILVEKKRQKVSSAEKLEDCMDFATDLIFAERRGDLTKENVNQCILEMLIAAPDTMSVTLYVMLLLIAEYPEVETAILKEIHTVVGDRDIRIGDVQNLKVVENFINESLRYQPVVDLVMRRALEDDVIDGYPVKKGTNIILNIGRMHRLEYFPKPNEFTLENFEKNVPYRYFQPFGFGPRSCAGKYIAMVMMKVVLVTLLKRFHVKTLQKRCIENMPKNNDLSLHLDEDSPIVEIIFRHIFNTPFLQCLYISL

[5] = molecular target: T3, Estrogen receptor (Homo sapiens, UniProt P03372); assay: Modulation of ER-alpha (unknown origin)
T3 sequence (P03372 whole entry): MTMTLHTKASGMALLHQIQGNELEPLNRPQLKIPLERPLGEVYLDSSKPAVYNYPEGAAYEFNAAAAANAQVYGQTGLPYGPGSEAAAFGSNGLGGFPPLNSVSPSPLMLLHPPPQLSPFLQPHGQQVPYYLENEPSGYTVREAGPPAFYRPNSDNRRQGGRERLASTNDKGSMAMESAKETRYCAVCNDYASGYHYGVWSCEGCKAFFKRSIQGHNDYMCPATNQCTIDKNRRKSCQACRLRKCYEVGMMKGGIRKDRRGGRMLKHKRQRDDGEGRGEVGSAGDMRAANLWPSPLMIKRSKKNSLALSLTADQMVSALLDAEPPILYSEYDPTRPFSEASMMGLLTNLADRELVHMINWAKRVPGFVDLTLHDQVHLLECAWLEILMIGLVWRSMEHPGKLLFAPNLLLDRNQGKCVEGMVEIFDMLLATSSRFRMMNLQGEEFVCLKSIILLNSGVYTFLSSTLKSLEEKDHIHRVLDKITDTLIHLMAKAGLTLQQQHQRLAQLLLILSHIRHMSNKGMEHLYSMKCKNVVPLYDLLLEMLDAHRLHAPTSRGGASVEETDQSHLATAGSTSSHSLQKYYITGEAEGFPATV

[6] = molecular target: T1, Estrogen receptor beta; assay: Modulation of ER-beta (unknown origin)

## C[C@]12CC[C@@H]3c4ccc(O)cc4C[C@@H](CCCCCCCCC[S+]([O-])CCCC(F)(F)C(F)(F)F)[C@H]3[C@@H]1CC[C@@H]2O (stereo partly specified) [FULVESTRANT]
[1]
  IC50: 0.29 nM

## CCOC(=O)C1(C(C)=O)Cc2ccc([C@]3(O)CC[C@H]4[C@@H]5CCc6cc(O)ccc6[C@H]5CC[C@@]43C)cc2C1 (stereo partly specified)
[2]
  EC50: 1.8 nM

## Oc1ccc([C@H]2COc3cc(O)ccc3C2)cc1 [AUS-131]
[3]
  IC50: 5570 nM

## C[C@]12C=CC(=O)C=C1C[C@@H](Sc1ccc(N)cc1)[C@@H]1[C@@H]2CC[C@]2(C)C(=O)CC[C@@H]12
[4]
  Ki: 18 nM

## C[C@]12CC[C@@H]3c4ccc(O)cc4CC[C@H]3[C@@H]1C[C@H]1OC(=O)C[C@]12O
[5]
  EC50: 0.014 nM
[6]
  EC50: 23 nM
